Data published in patent US20250326785A1, “SODIUM SALT AND ETHANOLAMINE SALT OF 23-HYDROXYTORMENTIC ACID” (HUYABIO International, LLC, priority 2024, published 2025).
Where two headings read alike, the source gives them in different places.

Assays:
[1] = for HPLC Conc./: based on free acid
Source text: pH-dependent solubility of the HBI- 3808 sodium salt of Pattern 2 was studied.
pH dependent solubility of the HBI- 3808 sodium salt of Pattern 5 was studied.

[2] = Hydration study in methanol/water aw 0.1, 0.5 and 0.9; format: physicochemical
Source text: Hydration studies of ethanolamine salt.

[3] = Stability study at 25° C./60% RH, 40° C./75% RH and 60° C. (XRPD, HPLC purity, impurity tracking); conditions: for XRPD: number = sodium salt XRPD Pattern; for RRT 0.801 / RRT 0.959 / RRT 1.000 (HBI-3808) / RRT 1.025 (Isomer of HBI-3808) / RRT 1.767 / Total Impurities / RRT 1.932: impurity tracking
Source text: Stability of HBI-3808 Sodium Salt Pattern 2 was studied over 13 weeks.
Table 2F presents impurity tracking results from a 13-week stability study of HBI-3808 sodium salt of Pattern 2. […]

[4] = Dynamic vapor sorption (DVS) analysis; format: physicochemical
Protocol: GC analysis indicated residual solvent contents of 2847 ppm methanol; and 27 ppm TBME. […] No residual methanol or TBME was detected due to signal over-lap. […] TG-DSC analysis indicated two weight losses. The first weight loss of 2.3 wt. % was observed between 20-170° C. […] In the DSC thermogram, three endothermic events were observed (FIG. 17I). […] FT-IR (FIG. 17J) and Raman spectra (FIG. 17K) were recorded for reference. […] XRPD pattern of the ethanolamine salt was retained post-DVS (FIG. 17N). […] However, at the end of the experiment the solids on the microscope slide had discolored (FIG. 17O).

[5] = Varying humidity (VH)-XRPD; format: physicochemical
Protocol: During the sorption phase, sodium salt Pattern 2 was observed between 40-60% RH. […] A mixture of sodium salt Pattern 2 and 5 was also observed at 80% RH. […] During the second desorption, from 90% RH to 40% RH, sodium salt Pattern 5 was maintained.
VH-XRPD analysis was carried out between 40-0% RH (FIG. 5L).

[6] = 40° C./75% RH (open vial), 1 Week
[7] = 40° C./75% RH (open vial), 2 Weeks
[8] = 40° C./75% RH (open vial), 4 Weeks

- final Measured pH ([1]; FaSSGF): 9.34
- HPLC Conc./ ([1]; FaSSGF): >150.33 mg/mL
- concentration ([1]; pH 1.2): < 1 µg/mL
- HPLC Conc./ ([1]; target pH 1.2 chloride buffer, start 200 mg/mL (ethanolamine salt 100 mg/mL)): <0.001 mg/mL
- HPLC Conc./ ([1]; target pH 3.0 acetate buffer): <0.001 mg/mL
- HPLC Conc./ ([1]; target pH 4.0 acetate buffer): <0.001 mg/mL
- HPLC Conc./ ([1]; target pH 6.8 phosphate buffer): 0.25 mg/mL
- HPLC Conc./ ([1]; target pH 8.0 phosphate buffer): 12.84 mg/mL
- XRPD of solids recovered at the end of the experiment [2]: consistent with sodium salt Pattern 2
- HPLC/ % area ([3]; 25° C./60% RH (open vial), 1 Week): 96.4 % area
- XRPD ([3]; 25° C./60% RH (open vial), 1 Week, * Traces of sodium salt Pattern 2): 5
- HPLC/ % area ([3]; 25° C./60% RH (open vial), 2 Weeks): 96.7 % area
- XRPD ([3]; 25° C./60% RH (open vial), 2 Weeks, * Traces of Pattern 2): 5
- HPLC/ % area ([3]; 25° C./60% RH (open vial), 4 Weeks): 96.3 % area
- XRPD ([3]; 25° C./60% RH (open vial), 4 Weeks, * Traces of Pattern 2): 5
- HPLC/ % area [3, 6]: 96.7 % area
- XRPD [3, 6]: 5
- HPLC/ % area [3, 7]: 97.5 % area
- XRPD [3, 7]: 5
- HPLC/ % area [3, 8]: 96.6 % area
- XRPD [3, 8]: 5
- HPLC/ % area ([3]; 60° C. (closed vial), 1 Week): 96.1 % area
- XRPD ([3]; 60° C. (closed vial), 1 Week): 5
- HPLC/ % area ([3]; 60° C. (closed vial), 2 Weeks): 97.3 % area
- XRPD ([3]; 60° C. (closed vial), 2 Weeks): 5
- HPLC/ % area ([3]; 60° C. (closed vial), 4 Weeks): 96.1 % area
- XRPD ([3]; 60° C. (closed vial), 4 Weeks): 5
- XRPD pattern over the stability study ([3]; all conditions, 4 weeks (Pattern 5), 13 weeks (ethanolamine salt)): Sodium salt Pattern 5 was retained
- RRT 0.801 ([3]; 25° C./60% RH, 1 week): 0.37 % area
- RRT 0.959 ([3]; 25° C./60% RH, 1 week): 0.14 % area
- RRT 1.000 (HBI-3808) ([3]; 25° C./60% RH, 1 week): 96.39 % area
- RRT 1.025 (Isomer of HBI-3808) ([3]; 25° C./60% RH, 1 week): 2.67 % area
- RRT 1.767 ([3]; 25° C./60% RH, 1 week): 0.43 % area
- Total Impurities ([3]; 25° C./60% RH, 1 week): 3.61 % area
- RRT 0.801 ([3]; 25° C./60% RH, 2 weeks): 0.30 % area
- RRT 1.000 (HBI-3808) ([3]; 25° C./60% RH, 2 weeks): 96.96 % area
- RRT 1.025 (Isomer of HBI-3808) ([3]; 25° C./60% RH, 2 weeks): 2.74 % area
- Total Impurities ([3]; 25° C./60% RH, 2 weeks): 3.04 % area
- RRT 0.801 ([3]; 25° C./60% RH, 4 weeks): 0.26 % area
- RRT 0.959 ([3]; 25° C./60% RH, 4 weeks): 0.13 % area
- RRT 1.000 (HBI-3808) ([3]; 25° C./60% RH, 4 weeks): 96.33 % area
- RRT 1.025 (Isomer of HBI-3808) ([3]; 25° C./60% RH, 4 weeks): 2.76 % area
- RRT 1.767 ([3]; 25° C./60% RH, 4 weeks): 0.30 % area
- RRT 1.932 ([3]; 25° C./60% RH, 4 weeks): 0.21 % area
- Total Impurities ([3]; 25° C./60% RH, 4 weeks): 3.67 % area
- RRT 0.801 ([3]; 40° C./75% RH, 1 week): 0.34 % area
- RRT 0.959 ([3]; 40° C./75% RH, 1 week): 0.13 % area
- RRT 1.000 (HBI-3808) ([3]; 40° C./75% RH, 1 week): 96.67 % area
- RRT 1.025 (Isomer of HBI-3808) ([3]; 40° C./75% RH, 1 week): 2.52 % area
- RRT 1.767 ([3]; 40° C./75% RH, 1 week): 0.34 % area
- Total Impurities ([3]; 40° C./75% RH, 1 week): 3.33 % area
- RRT 0.801 ([3]; 40° C./75% RH, 2 weeks): 0.37 % area
- RRT 1.000 (HBI-3808) ([3]; 40° C./75% RH, 2 weeks): 97.47 % area
- RRT 1.025 (Isomer of HBI-3808) ([3]; 40° C./75% RH, 2 weeks): 2.16 % area
- Total Impurities ([3]; 40° C./75% RH, 2 weeks): 2.53 % area
- RRT 0.801 ([3]; 40° C./75% RH, 4 weeks): 0.42 % area
- RRT 0.959 ([3]; 40° C./75% RH, 4 weeks): 0.16 % area
- RRT 1.000 (HBI-3808) ([3]; 40° C./75% RH, 4 weeks): 96.60 % area
- RRT 1.025 (Isomer of HBI-3808) ([3]; 40° C./75% RH, 4 weeks): 2.34 % area
- RRT 1.767 ([3]; 40° C./75% RH, 4 weeks): 0.25 % area
- RRT 1.932 ([3]; 40° C./75% RH, 4 weeks): 0.22 % area
- Total Impurities ([3]; 40° C./75% RH, 4 weeks): 3.40 % area
- RRT 0.801 ([3]; 60° C., 1 week): 0.28 % area
- RRT 0.959 ([3]; 60° C., 1 week): 0.15 % area
- RRT 1.000 (HBI-3808) ([3]; 60° C., 1 week): 96.23 % area
- RRT 1.025 (Isomer of HBI-3808) ([3]; 60° C., 1 week): 2.94 % area
- RRT 1.767 ([3]; 60° C., 1 week): 0.40 % area
- Total Impurities ([3]; 60° C., 1 week): 3.77 % area
- RRT 0.801 ([3]; 60° C., 2 weeks): 0.38 % area
- RRT 1.000 (HBI-3808) ([3]; 60° C., 2 weeks): 97.33 % area
- RRT 1.025 (Isomer of HBI-3808) ([3]; 60° C., 2 weeks): 2.29 % area
- Total Impurities ([3]; 60° C., 2 weeks): 2.67 % area
- RRT 0.801 ([3]; 60° C., 4 weeks): 0.37 % area
- RRT 0.959 ([3]; 60° C., 4 weeks): 0.19 % area
- RRT 1.000 (HBI-3808) ([3]; 60° C., 4 weeks): 96.13 % area
- RRT 1.025 (Isomer of HBI-3808) ([3]; 60° C., 4 weeks): 2.71 % area
- RRT 1.767 ([3]; 60° C., 4 weeks): 0.36 % area
- RRT 1.932 ([3]; 60° C., 4 weeks): 0.23 % area
- Total Impurities ([3]; 60° C., 4 weeks): 3.87 % area
- RRT 0.801 ([3]; T = 0): 0.35 % area
- RRT 1.000 (HBI-3808) ([3]; T = 0): 96.83 % area
- RRT 1.025 (Isomer of HBI-3808) ([3]; T = 0): 2.66 % area
- RRT 1.767 ([3]; T = 0): 0.17 % area
- Total Impurities ([3]; T = 0): 3.17 % area
- input purity by HPLC ([3]; input material of the stability study (baseline)): 96.8 % area
- reversibility of mass uptake/loss ([4]; Pattern 2: second DVS cycle): reversible
- water (mass) uptake ([4]; at 80% RH/25° C. (Pattern 2: second DVS cycle)): 0.8 wt. %
- XRPD pattern during desorption ([5]; 40-0% RH, 30° C.): no change in diffractogram
SMILES: CC1CCC2(C(=O)[O-])CCC3(C)C(=CCC4C5(C)CC(O)C(O)C(C)(CO)C5CCC43C)C2C1(C)O.[Na+] (stereo not shown) [HBI-3808 sodium salt of Pattern 5, sodium salt of 23-hydroxytormentic acid]
- change in chemical purity by HPLC over the stability study ([3]; all conditions (25° C./60% RH; 40° C./75% RH; 60° C.), 13 weeks (Pattern 5: 4 weeks)): no significant decrease in chemical purity
- XRPD of recovered material post-DVS [4]: consistent with HBI-3808 sodium salt of Pattern 5
- XRPD pattern / form stability over relative humidity ([5]; 0-90% RH): stable to relative humidity between 90-0% RH
